# Laboratory results published in patent publication US11224565B2, “N-acyldipeptide derivatives and their uses” (NeoStrata Company, Inc., priority 2011, dated 2022).
# Peptide text beside a SMILES is read from it.
# What was measured:
# Assay type in all cases: in vivo, human
# [1] = test system: inflammation, dermatitis, or eczema lesions; assay: Topical application to chronic inflammation, dermatitis, eczema or allergic skin lesions, clinical evaluation; settings: for skin color of treated skin compared to surrounding untreated skin: 4 weeks, 0.5% N-Ac-L-Tyr-L-Tyr-NH2 solution or 0.4% N-Ac-L-Val-L-Ala-NH2 in WEP442
# From the text: In another embodiment, the volunteer subject topically applied the test compositions containing N-acyldipeptide derivatives of the present invention on involved skin or lesions once or twice daily for several weeks or until the involved lesions completely cleared and clinically changed to normal skin. As a control study, the subject also topically applied a vehicle control composition on the involved skin or lesions twice daily for the same period.
# [2] = test system: Disturbed keratinization; assay: Summary of test results in volunteer subjects: disturbed keratinization; settings: efficacy grade
# In short: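 Volunteers applied N-acyldipeptide derivatives dissolved in water/ethanol/propylene glycol 40:40:20, ethanol/propylene glycol 80:20, or water/propylene glycol 80:20 mixed into oil-in-water cream, on involved skin once or twice daily for several weeks or until clearing. Vehicle applied twice daily as control; disturbed keratinization lesions assessed clinically.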
# [3] = test system: Aging related changes of skin, nail and hair; assay: Summary of test results in volunteer subjects: aging related changes; settings: efficacy grade
# [4] = test system: Deranged immune disorders and inflammation; assay: Summary of test results in volunteer subjects: deranged immune disorders and inflammation; settings: efficacy grade
# In short: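 Volunteers applied N-acyldipeptide derivatives topically once or twice daily for several weeks or until lesions cleared. Compounds were dissolved in water/ethanol/propylene glycol (40:40:20) or ethanol/propylene glycol (80:20), or in water/propylene glycol (80:20) mixed into an oil-in-water cream. Vehicle control applied twice daily.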
# [5] = test system: Nerve disorders; assay: Summary of test results in volunteer subjects: nerve disorders; settings: efficacy grade
# In short: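 Volunteers applied N-acyldipeptide derivatives dissolved in water/ethanol/propylene glycol (40:40:20), ethanol/propylene glycol (80:20), or water/propylene glycol (80:20) mixed into cream, once or twice daily for several weeks or until lesions cleared. Vehicle control applied twice daily; application also over arthritic joints or painful muscles.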
# [6] = chronic eczema right leg, twice daily
# [7] = chronic eczema right leg, twice daily, 0.5% (w/v) N-Ac-L-Tyr-L-Tyr-NH2 solution pH 6.7 on one lesion, 0.4% (w/v) N-Ac-L-Val-L-Ala-NH2 in WEP442 pH 5.8 on second
# [8] = chronic eczema of legs, twice daily, 2% (w/v) N-Ac-L-Val-L-Ala-NH2 cream on one leg, 0.5% (w/w) N-Ac-L-Tyr-L-Tyr-NHNHAc in WEP442 pH 5.5 on the other
Structure (SMILES),"skin color of treated skin compared to surrounding untreated skin [1, 6]","itch after topical application [1, 7]",DK [2],AG [3],DI [4],ND [5],"itch after topical application [1, 8]","improvement as judged by clinical evaluation ([1]; chronic eczema, twice daily, two weeks, 0.6% (w/w) N-Ac-L-Tyr-L-Tyr-NHNH2 cream on one set of lesions, 0.7% (w/w) N-Ac-L-Tyr-L-Tyr-NHNHAc cream on another) [%]","itch after topical application ([1]; chronic eczema, twice daily, 0.6% (w/w) N-Ac-L-Tyr-L-Tyr-NHNH2 cream on one set of lesions, 0.7% (w/w) N-Ac-L-Tyr-L-Tyr-NHNHAc cream on another)","itch after topical application ([1]; 0.5% (w/w) cream twice daily, skin allergy from shellfish with reddish papules)","improvement as judged by clinical evaluation ([1]; 0.5% (w/w) cream twice daily, skin allergy from shellfish, end of 5 days) [%]"
CC(=O)N[C@@H](Cc1ccc(O)cc1)C(=O)N[C@@H](Cc1ccc(O)cc1)C(N)=O [N-Ac-L-Tyr-L-Tyr-NH2] (Ac-Tyr-Tyr-NH2),much lighter in skin color,stopped within a few minutes,4+ (4+: 95-100% Efficacy),4+ (4+: 95-100% Efficacy),4+ (4+: 95-100% Efficacy),4+ (4+: 95-100% Efficacy),,,,,
CC(=O)NNC(=O)[C@H](Cc1ccc(O)cc1)NC(=O)[C@H](Cc1ccc(O)cc1)NC(C)=O [N-Ac-L-Tyr-L-Tyr-NHNHAc],,,4+ (4+: 95-100% Efficacy),3+ (3+: 75% Efficacy),4+ (4+: 95-100% Efficacy),4+ (4+: 95-100% Efficacy),stopped within a few minutes,100,stopped immediately,,
CC(=O)N[C@H](C(=O)N[C@@H](C)C(N)=O)C(C)C [N-Ac-L-Val-L-Ala-NH2] (Ac-Val-Ala-NH2),much lighter in skin color,stopped within a few minutes,4+ (4+: 95-100% Efficacy),4+ (4+: 95-100% Efficacy),4+ (4+: 95-100% Efficacy),4+ (4+: 95-100% Efficacy),stopped within a few minutes,,,stopped within a few minutes,75
